Results on nine compounds are retold here after patent US20220273716A1, “POPULATIONS OF NATURAL KILLER CELLS COMPRISING A CD38 CHIMERIC ANTIGEN RECEPTOR” (Celularity Inc., priority 2019, published 2022).

Entries after “also recorded” stand apart in the source; their conditions may differ. Like-named read-outs stand apart in the source and are kept apart here.

Series [1] relates to CD34+ cells. Description: NK cell expansion from CD34+ cells in three-stage culture with compound. In kind it is cell-based, human. The conditions noted are these: for support of NK expansion (and differentiation) / cell expansion compared to SR1: compound 10 μM during first 14 days, Day 35; for cell expansion compared to SR1: SR1 10 μM positive control; for expansion, differentiation and cytotoxicity profile versus SR1: PNK-007 culture. From the text:
(§1) UCB CD34+ cells were cultivated in presence of cytokines including thrombopoietin, SCF, Flt3 ligand, IL-7, IL-15 and IL-2 for 35 days to produce three-stage NK cells, as described in Example 1. Multi-color flow cytometry was used to determine the phenotypic characteristics of three-stage NK cells.
(§2) For biological testing, the compounds were provided to culture to evaluate their effects on NK cell expansion and differentiation. Specifically, donors of CD34+ cells (StemCell Technology) were thawed and expanded in vitro following NK culture protocol. During the first 14 days of the culture, each CRL compounds was dissolved in DMSO and added to the culture at 10 μM concentration. SR1 (at 10 μM) served as a positive control compound, while DMSO alone without any compound served as a negative control. At the end of the culture on Day 35, cell expansion, natural killer (NK) cell differentiation and cytotoxicity of the cells against K562 tumor cell line were characterized. Due to the large number of the compounds, the testing was performed in two experiments, CRL1-11 and CRL 12-22. The same donors were used for each experiment. Positive and negative controls were also included in both experiments.

The test system of another series is multiple myeloma. The following applies: cited from earlier work.
The test system of another series is K562 tumor cells. Description: Cytotoxicity assay of compound cultured cells against K562 tumor cells. In kind it is cell-based. The following applies: 10:1 E:T ratio, both donors. Here is the method: as §2
Cytotoxicity assay was run using compound cultured cells against K562 tumor cells at 10:1 effector to target ratio (FIG. 5) to evaluate cell functions.

Series [2] deals with CD34+ cells. Briefly: NK cell differentiation of compound cultured cells (flow cytometry). In kind it is cell-based, human. The following applies: compared to SR1.
Description: as §1, §2
(In general: In flow cytometry, cells or beads pass a laser one at a time.)

The next series concerns CD34 cells. Description: CD34 cell expansion at Day 14 of the culture. The conditions noted are these: compound 10 μM. Format: cell-based, human. Here is the method: as §2

For the compound `CCC(C)Nc1cc(-c2cncc(C#N)c2)nc(NCCc2c[nH]c3ccccc23)n1` (stereo not drawn) [CRL7, 5-(2-((2-(1H-indol-3-yl)ethyl)amino)-6-(sec-butylamino)pyrimidin-4-yl)nicotinonitrile], the “support of NK expansion (and differentiation)” value (shortened to “support … (and differentiation)”) with CD34+ cells [1] was “Except for CRL7 and CRL13, the rest of the compounds all resulted in a NK expansion; also recorded: all the compounds except CRL7 and CRL13 supported PNK-007 expansion and differentiation”.

In the case of `Nc1cccc2c1CN(C1CCC(=O)NC1=O)C2=O` (stereo not drawn) [lenalidomide, 3-(4′aminoisoindoline-1′-one)-1-piperidine-2,6-dione], the results for the “ORR (VGPR or better)” value in the series with multiple myeloma (1 year post ASCT) and with multiple myeloma (2 year post ASCT) were 48% and 36%, respectively. Also, the “hazard ratio (TTP, vs placebo)” value in the series with multiple myeloma (95% CI 0.46-0.71) is reported as 0.57. Further, the “median TTP” value in the series on multiple myeloma (not accounting for crossover) is 57.3 months.

As to `CC(C)c1csc2c(NCCc3c[nH]c4ccccc34)nc(-c3cncc(F)c3)nc12` [CRL18, N-(2-(1H-indol-3-yl)ethyl)-2-(5-fluoropyridin-3-yl)-7-isopropylthieno[3,2-d]pyrimidin-4-amine], the “cell expansion compared to SR1” value in the series on CD34+ cells [1] is “slightly less expansion compared to SR1”. Besides, the “killing activity compared to cells cultured with SR1” value in the series with K562 tumor cells is reported as “increased killing activities”. Also, in the series with CD34+ cells [2], the “CD56+/CD11a+ subpopulation” value was “increased CD56+/CD11a+ subpopulation”.

As to `CCC(C)Nc1nc(NCCc2c[nH]c3ccccc23)c2ccccc2n1` (stereo not drawn) [CRL13, N^4-(2-(1H-indol-3-yl)ethyl)-N^2-(sec-butyl)quinazoline-2,4-diamine], in the series on CD34+ cells [1], the “support … (and differentiation)” value is “Except for CRL7 and CRL13, the rest of the compounds all resulted in a NK expansion; also recorded: all the compounds except CRL7 and CRL13 supported PNK-007 expansion and differentiation”.

On to `Cc1cncc(-c2nc(NCCc3c[nH]c4ccccc34)c3occc3n2)c1` [CRL20, N-(2-(1H-indol-3-yl)ethyl)-2-(5-methylpyridin-3-yl)furo[3,2-d]pyrimidin-4-amine], for which, in the series on CD34+ cells [1], the “expansion, differentiation and cytotoxicity profile versus SR1” value was “very similar expansion, differentiation and cytotoxicity profiles as SR1”; the “support … (and differentiation)” value was “supported cell expansion the best”. For the same compound, the CD34 cell expansion result in the series on CD34 cells is “achieved the highest CD34 cell expansion”.

As for `CC(C)c1csc2c(NCCc3c[nH]c4ccccc34)nc(-c3cncc(C#N)c3)nc12` [CRL17, 5-(4-((2-(1H-indol-3-yl)ethyl)amino)-7-isopropylthieno[3,2-d]pyrimidin-2-yl)nicotinonitrile], the “cell expansion compared to SR1” value in the series on CD34+ cells [1] is listed as “slightly less expansion compared to SR1”. Besides, in the series with K562 tumor cells, the “killing activity compared to cells cultured with SR1” value is given as “increased killing activities”. The “CD56+/CD11a+ subpopulation” value with CD34+ cells [2] is on record as “increased CD56+/CD11a+ subpopulation”.

For the compound `Cc1cncc(-c2nc(NCCc3c[nH]c4ccccc34)c3scc(C(C)C)c3n2)c1` [CRL21, N-(2-(1H-indol-3-yl)ethyl)-7-isopropyl-2-(5-methylpyridin-3-yl)thieno[3,2-d]pyrimidin-4-amine], the “cell expansion compared to SR1” value with CD34+ cells [1] is reported as “slightly less expansion compared to SR1”. In addition, the “killing activity compared to cells cultured with SR1” value in the series with K562 tumor cells was “increased killing activities”. Also, the “CD56+/CD11a+ subpopulation” value in the series on CD34+ cells [2] is listed as “increased CD56+/CD11a+ subpopulation”.

Turning to `Fc1cncc(-c2nc(NCCc3c[nH]c4ccccc34)c3occc3n2)c1` [CRL19, N-(2-(1H-indol-3-yl)ethyl)-2-(5-fluoropyridin-3-yl)furo[3,2-d]pyrimidin-4-amine], in the series with CD34+ cells [1], the “expansion, differentiation and cytotoxicity profile versus SR1” value was “very similar expansion, differentiation and cytotoxicity profiles as SR1”; the “support … (and differentiation)” value was “supported cell expansion the best”. Further, the CD34 cell expansion result with CD34 cells is recorded as “achieved the highest CD34 cell expansion”.

For `N#Cc1cncc(-c2nc(NCCc3c[nH]c4ccccc34)c3occc3n2)c1` [CRL22, 5-(4-((2-(1H-indol-3-yl)ethyl)amino)furo[3,2-d]pyrimidin-2-yl)nicotinonitrile], in the series with CD34+ cells [1], the “expansion, differentiation and cytotoxicity profile versus SR1” value is “very similar expansion, differentiation and cytotoxicity profiles as SR1”; the “support … (and differentiation)” value is listed as “supported cell expansion the best”. For the same compound, the CD34 cell expansion entry in the series on CD34 cells is recorded as “achieved the highest CD34 cell expansion”.
